In ChEMBL document CHEMBL3507680, “University of Dundee, Gates Library screen for HepG2 cell viability”:

Test: Human HepG2 cell viability assay in 384 well format
Assay type: toxicity, cell-based
Design: dose 125 nL, time 70.5 hour; cytotoxicity at 70.5 h: concentration not given beside the values
Settings: HepG2 cells, read-out: Inhibition

Structure (SMILES) | cytotoxicity at 70.5 h
Cc1cnn(C2CCCN(C(=O)c3ccc4c(c3)CCC4)C2)c1 (stereo not given) | -6.05%
CCOCCn1c(=O)[nH]c2cc(C(=O)N(C)Cc3nc(C)c[nH]3)ccc21 | -5.85%
Cc1nn(C)c(C)c1S(=O)(=O)N1C[C@@H]2C[C@@H](C)O[C@@H]2C1 | -9.76%
O=C(NCC1CCOC1)c1csc(-c2ccccc2)n1 (stereo not given) | -15.4%
CS(=O)(=O)CCC(=O)Nc1ccsc1 | -14.4%
Cn1c(CS(=O)(=O)c2ccc(Cl)cc2)cc(=O)n(C)c1=O | -4.14%
c1ccc(CN2CCN3C[C@H](Oc4cncnc4)C[C@H]3C2)nc1 | -3.2%
COc1cc(C)ccc1OCCC(=O)N1CCC(C(N)=O)C1 (stereo not given) | -10.8%
CN(C)S(=O)(=O)N1CC[C@]2(O)CCN(CCc3cccc(F)c3)C[C@@H]2C1 | -11.2%
O=C(Nc1nnn[nH]1)c1ccc(I)c(F)c1 | 4.13%
CC(C1CCN(Cc2c(Cl)cncc2Cl)CC1)N1CCN(C)CC1 (stereo not given) | 14.7%
c1cnc(C2CCCN2c2cnccn2)cn1 (stereo not given) | 6.08%
COc1ccc(CN(C)C(=O)CN2CC(n3cccn3)C2)cc1F | -0.231%
CCN(C)C(=O)c1ccc(N2CCC(Oc3cccc(F)c3)CC2)nc1 | -4.75%
O=C(c1cc(C2CC2)nc2onc(-c3ccccc3)c12)N1CC[C@H](O)C1 | -4.91%
CN(C)CCO[C@@H]1CC[C@H]2[C@H]1OCCN2C(=O)CCc1ccccc1 | -12.8%
c1cc2c(cc1Cn1cc(C3CCOC3)nn1)CCCO2 (stereo not given) | -13.2%
CC(C)c1cc(C2CCN(Cc3cc(F)cc(F)c3)CC2)[nH]n1 | -1.12%
COCCN(C)C[C@@H]1CN(C(=O)c2ccoc2)C[C@@H]1CO | -7.32%
O=S(=O)(Cc1ccccc1)c1nnc(N2CCOCC2)s1 | -9.13%
CC(=O)Nc1ccc2nn(C(C)C)cc2c1 | -8.47%
Cn1nc(Br)c2c(NCCNc3ncccn3)ncnc21 | -21.3%
COc1ccc(OCCNCCn2cccn2)cc1 | 3.51%

Structure (SMILES) | cytotoxicity at 70.5 h
CC(C)(C)n1c(NC(=O)CNC(=O)NC2CC2)nc2ccccc21 | 1.24%
Cc1ccsc1C(Cc1ccccc1)NC(=O)CNC(=O)C1CC1 (stereo not given) | -3.91%
CCN(CC)CCNC(=O)c1cc(C(C)C)nc(N2CCCC2)n1 | 56.7%
CN1C(=O)C(c2ccccc2)CC12CCN(CCN1CCCC1=O)CC2 (stereo not given) | 12.2%
Brc1cnc(NCCCOCC2CCOC2)nc1 (stereo not given) | -5.54%
CCc1ccc(CCC(=O)NCc2nnc[nH]2)cc1 | -19.3%
COC(=O)CC(NC(=O)c1cccc(N2CCCC2=O)c1)c1cccs1 (stereo not given) | 4.95%
Cc1cc(=O)[nH]cc1C(=O)N1Cc2ccccc2N(C)CC1C (stereo not given) | 26%
Fc1cccc(OC2CCN(Cc3ncc[nH]3)CC2)c1 | 18%
Cc1noc(C)c1CNC(=O)N1CCN(CC2CC2)CC1 | -5.87%
CC(NC(=O)Cn1cccn1)c1ccc2c(c1)OCCCO2 (stereo not given) | 52.1%
Cc1ccc(NC2CCN(C(=O)CCc3ccsc3)CC2)nn1 | -7.65%
CN(C)c1cc(CNC(=O)CC2CCCCC2)ccn1 | -5.82%
CCCS(=O)(=O)C(C)C(=O)Nc1ccc2oc(C3CC3)nc2c1 (stereo not given) | -2.1%
Cc1c(NC(=O)N(C)CCO)cccc1OC1CCCC1 | -7.3%
CCc1nc(-c2ccc(NC(=O)N3CCC4(CC3)OCCO4)cc2)no1 | 3.68%
CCOc1cccc(COC(=O)c2cc(Cl)ccn2)n1 | 25.2%
Cc1nc(CN2Cc3nccn3CC(CN3CCOCC3)C2)cs1 (stereo not given) | -2.85%
Cc1ccc(-c2nnc(CCC(=O)N3CCCC3c3ccc[nH]3)o2)cc1 (stereo not given) | -2%
CC(C)c1nnc(NC(=O)NCc2cccnc2NCCN(C)C)s1 | 4.5%
O=C1NCCCCC1Sc1ccc(F)c(F)c1 (stereo not given) | -13.1%
CC(NC(=O)CCCn1cnc2ccccc2c1=O)c1ncn[nH]1 (stereo not given) | -15.2%
CN1CCN(C(=O)CC2CCN(CCc3ccccn3)CC2)CC1 | -0.784%

Structure (SMILES) | cytotoxicity at 70.5 h
Cc1cnc(N2CCC3(CC2)COCCN(C(C)C)C3)nc1 | -8.08%
Cc1ccc(C2CCCCCN2C(=O)Nc2cn[nH]c2)o1 (stereo not given) | -6.84%
CCCc1nnsc1C(=O)N1CCN(CC(O)C2CC2)CC1 (stereo not given) | 14.6%
CC(C)(O)CN1CCN(C(=O)c2ccn(-c3cccc(F)c3)n2)CC1 | -4.39%
CC(C)Cn1cc(NC(=O)N2CCCC2)cn1 | 0.273%
N[C@H]1CN(C(=O)CCC(F)(F)F)C[C@@H]1c1ccccc1 | -5.15%
Cn1ccnc1SCCNC(=O)c1c[nH]nc1C1CCCCC1 | -8.06%
O=C(O)c1c[nH]c2cc(NS(=O)(=O)c3ccc(Cl)cc3F)ccc12 | -5.42%
Cc1ncc(-c2ccnc(SCCN(C)C)n2)c(-c2ccco2)n1 | 20.1%
CC(C)n1ccnc1C1CCN(Cc2ccc(Cl)c(F)c2)CC1 | -5.05%
c1ccc2oc(CCCN3CCOC(Cn4cncn4)C3)nc2c1 (stereo not given) | 14.6%
CC(Nc1nc2c(cnn2C)c(=O)[nH]1)c1ccc(F)cc1 (stereo not given) | -2.55%
Cc1c(Cl)cccc1NCc1nc2n(n1)CCCCC2 | -7.61%
O=C(O)c1cn(CC2CCCN(c3cnc4ccccc4n3)C2)nn1 (stereo not given) | -3.54%
O=C(NC1CCCCNC1=O)c1cc2ccccc2[nH]c1=O (stereo not given) | -15.7%
N#Cc1ccc(OC2CCN(C(=O)c3ccccc3Cl)CC2)nc1 | -5.83%
COc1ccc(C(C)NCCc2ccc(NC(C)=O)cc2)c(OC)c1 (stereo not given) | 0.0966%
O=C1CC2(CCNCC2)C(=O)N1Cc1ccc(F)cc1 | 29.9%
O=C(c1ccc[nH]1)N1CCOCC12CCCC2 | 30.2%
O=C(CCC(=O)Nc1nnc(C(F)(F)F)s1)NCC1CCCO1 (stereo not given) | -0.323%
Cn1cc(CN2CCCC3(CCN(C(=O)c4ccccn4)C3)C2)cn1 (stereo not given) | -12%
CCN1CC2(CC1=O)CN(C(=O)c1ccco1)CCN(C(=O)C(C)C)C2 (stereo not given) | 0.454%
CN(Cc1cnn(C)c1)C(=O)C1COc2ccccc2C1 (stereo not given) | -5.03%

Structure (SMILES) | cytotoxicity at 70.5 h
COc1nn(C)c2c1CCCN(C(=O)c1cccs1)C2 | -23.5%
O=C(CO)N1CCCC(c2cc(C(F)(F)F)[nH]n2)C1 (stereo not given) | -2.3%
Fc1ccc(CN2CCCC2c2cncc(-n3ccnc3)n2)cc1 (stereo not given) | -1.28%
OCCn1cc(CN2CCN(CCOc3ccccc3)CC2)cn1 | -16%
Cc1nc(N2CCN(C(=O)c3cccnc3)CC2)cc(-n2cccc2)n1 | 4.9%
Cc1nc(SCC(=O)Nc2ccc(C(N)=O)cc2)c(C#N)c(C)c1C | 4.83%
CCc1ccc(CN(Cc2ccccc2)CC(C)CO)nc1 (stereo not given) | -6.55%
COCCC(=O)N[C@H]1CN(c2nc(C)c3c(n2)CCCC3)C[C@@H]1C1CC1 | -9.64%
CC(NC(=O)NCCCc1n[nH]c(N)c1C#N)c1ccccc1F (stereo not given) | 0.683%
CC(O)CN1CCN(C(=O)c2ccc(Cn3cccc3)cc2)CC1 (stereo not given) | -2.78%
O=C(c1ccc(S(=O)(=O)NCC(F)F)cc1)N1C[C@H]2CNC[C@H]2C1 | -1.24%
Cc1csc(CN2CC(CO)Oc3ccccc32)n1 (stereo not given) | 7.51%
CC1CN(C)CCN1C(=O)NCCCn1ccnc1 (stereo not given) | -1.11%
Cc1nn(C)c2nc(N3CCCC3c3nccs3)sc12 (stereo not given) | -12.1%
O=C(CCC(=O)NCc1cccc(Br)c1)NCCN1CCCC1 | 23.6%
CCOC(=O)c1nc(CN2CCN(C(=O)NC3CCCCC3)CC2)cs1 | -7.73%
O=C(NC[C@H]1OC[C@@H](NCc2cccs2)[C@@H]1O)N1CCOCC1 | 8.48%
COc1ccc(-n2ncc3c2NC(=O)CSC3CC(C)C)cc1 (stereo not given) | -19.5%
Fc1cccc(CNCC2OCCc3cn(CC4CCOCC4)nc32)c1 (stereo not given) | -5.44%
CCOCC1CC2(CCN(C(=O)c3ccc4ccccc4n3)CC2)CO1 (stereo not given) | -13.3%
CN1CCc2c(C#N)c(NCCc3ccccc3)n3cnnc3c2C1 | -12.4%
CC(C)c1nn(C)c(N2CCOCC2)c1CNCCC(=O)N(C)C | 22.2%
O=C(NCc1nnc2n1CCCC2)N1CCc2sccc2C1 | -4.27%

Structure (SMILES) | cytotoxicity at 70.5 h
Cn1nnnc1SCC1Cc2ccccc2O1 (stereo not given) | 26.1%
O=C(NCc1ccccn1)[C@@H]1CC[C@@H]2[C@@H](CCN2c2ncc(F)cn2)O1 | -11.3%
Cc1nn(C(C)C)c(C)c1CN1CCN(C2CCCCC2)C(=O)C1 | -3.48%
Cc1ccc(CN(C(=O)NCC2CCS(=O)(=O)C2)C2CC2)o1 (stereo not given) | -7.11%
O=C(NCc1ccc2c(c1)OCCO2)N1CCC(CO)CC1 | 4.7%
CN(CC(=O)NCC(O)c1cccc(F)c1)C(=O)OC(C)(C)C (stereo not given) | -3.05%
O=C(CO)N1C[C@H]2CN(Cc3cccc(F)c3)C(=O)[C@H]2C1 | -5.34%
O=C(COc1ccccc1)N1C[C@@H]2COC[C@]2(COc2cccnc2)C1 | 4.76%
CN(C)c1ncc(NC(=O)N2CCC(CN3CCCC3)C2)cn1 (stereo not given) | 0.1%
c1cc2nc(C3CCNCC3)nn2cc1NC1CCC1 | 23.2%
CCCc1n[nH]c(C2CN(C(=O)CCCn3ccnc3)CCO2)n1 (stereo not given) | -0.218%
CCn1c(C)nnc1CN(C)C1CCN(Cc2nccn2C)C1 (stereo not given) | 3.01%
OCCn1nccc1C1CCN(CCOc2ccccc2F)CC1 | -2.7%
CC(=O)NC1CCN(c2ncnc3c2c(C)nn3C)C1 (stereo not given) | -7.17%
OC[C@H]1CCCN1c1nccc(-c2cncnc2C2CCCCC2)n1 | -2.18%
O=C(CCN1CCCC1C1CCCCC1)N1CCc2sccc2C1 (stereo not given) | 2.92%
CCc1ccc2c(c1)C(CCNC(=O)c1sccc1C)C(=O)N2 (stereo not given) | -3.5%
NC(=O)c1cn[nH]c1C1CCCN1C(=O)c1ccccn1 (stereo not given) | -4.23%
CCC(CC)C(CNC(=O)Nc1cnn(CCOC)c1)N(C)C (stereo not given) | -8.7%
Cc1n[nH]cc1CNC(C)c1cccc(N2CCCC2=O)c1 (stereo not given) | 14.3%
NC(=O)C1CN(C(=O)C2(c3ccc(F)cc3F)CCCC2)CCO1 (stereo not given) | -1.48%
O=C(C1CCCC1)N1CCOC(c2nc(-c3ncccn3)no2)C1 (stereo not given) | -4.9%
CCN(CC)C(C(=O)Nc1ccc2c(c1)CCC(=O)N2)c1ccccc1 (stereo not given) | -11.2%
